{
  "source": "patent US7968537B2",
  "about": "“Pyrimidine compound and pests controlling composition containing the same” (Sumitomo Chemical Company, Limited, priority 2003, dated 2011)",
  "data": [
    {"test_system": "cotton aphids (Aphis gossypii)", "test": "Test Example 1: spray test on cotton aphids on cucumber plants", "type": "in vivo", "settings": "500 ppm active ingredient, sprayed 20 ml/cup on cucumber with about 20 cotton aphids; 6th day after the application", "method": "A formulation of a test compound obtained in Formulation Example 5 was diluted with water so that the active ingredient concentration came to 500 ppm to prepare a test spray liquid. The seeds of cucumber were planted in polyethylene cups and grown until their first foliage leaves developed, on which about 20 cotton aphids (Aphis gossypii) were made parasitic. After one day, the test spray liquid was sprayed at the rate of 20 ml/cup onto the cucumber plants. On the 6th day after the application, the number of cotton aphids was examined and the control value was determined by the following formula: Control value (%)={1−(Cb×Tai)/(Cai×Tb)}×100 wherein the variables in the formula have the following meanings: Cb: the number of insects before the treatment in the non-treated area; Cai: the number of insects at the time of observation in the non-treated area; Tb: the number of insects before the treatment in the treated area; and Tai: the number of insects at the time of observation in the treated area.", "units": {"control value": "%"}, "values": [
      {"smiles": "COc1cc(N2CCCCC2)ncn1", "note": "[compound of the formula (A)]", "control value": "≤ 29"}
    ]},
    {"test_system": "Western flower thrips (Frankliniella occidentalis)", "test": "Test Example 2: Western flower thrips larvae on treated cucumber leaf", "type": "in vivo", "settings": "500 ppm, 20 ml/cup on cucumber; thirty larvae set free on cut first true leaf; after seven days", "method": "A formulation of each test compound obtained according to Formulation Example 5 was diluted with water so that the active ingredient concentration came to 500 ppm to prepare a test spray liquid. The seeds of cucumber were planted in a polyethylene cup, and grown until their first foliage leaves developed, and then a test spray liquid was applied at a ratio of 20 ml/cup to the plant. After the liquid sprayed to the cucumber were dried, the first true leaf was cut off and placed on a filter paper (70 mm in diameter) impregnated with water in a polyethylene cup (110 mm in diameter). Thirty larvae of Western flower thrips (Frankliniella occidentalis) were set free on the first true leaf, which was covered with a polyethylene cup. After seven days, the number of surviving pests was examined.", "values": [
      {"smiles": "CC#CCOc1cc(N2C[C@@H](C)C[C@H](C)C2)ncn1", "note": "(relative stereo) [Compound (44), 4-(2-butynyloxy)-6-(trans-3,5-dimethylpiperidino)pyrimidine]", "number of surviving pests": 0},
      {"smiles": "CC#CCOc1ncnc(N2CC(C)CC(C)C2)c1F", "note": "(stereo not shown) [(51), 4-(2-butynyloxy)-5-fluoro-6-(3,5-dimethylpiperidino)pyrimidine]", "number of surviving pests": 0},
      {"smiles": "CC#CCOc1ncnc(N2CC(C)CC(C)C2)c1F", "note": "(stereo not shown) [Compound (4), 4-(2-butynyloxy)-5-fluoro-6-(3,5-dimethylpiperidino)pyrimidine]", "number of surviving pests": 0},
      {"smiles": "CC#CCOc1cc(N2C[C@H](C)C[C@H](C)C2)ncn1", "note": "[Compound (23), 4-(2-butynyloxy)-6-(cis-3,5-dimethylpiperidino)pyrimidine]", "number of surviving pests": 0},
      {"smiles": "CC#CCOc1cc(N2CCCC(C(F)(F)F)C2)ncn1", "note": "(stereo not shown) [Compound (24), 4-(2-butynyloxy)-6-(3-trifluoromethylpiperidino)pyrimidine]", "number of surviving pests": 0},
      {"smiles": "CC#CCOc1ncnc(N2CCCC(C)C2)c1F", "note": "(stereo not shown) [Compound (26), 4-(2-butynyloxy)-5-fluoro-6-(3-methylpiperidino)pyrimidine]", "number of surviving pests": 0},
      {"smiles": "CC#CCOc1ncnc(N2C[C@H](C)C[C@H](C)C2)c1F", "note": "[Compound (29), 4-(2-butynyloxy)-5-fluoro-6-(cis-3,5-dimethylpiperidino)pyrimidine]", "number of surviving pests": 0},
      {"smiles": "CC#CCOc1ncnc(N2CCCC(C)(C)C2)c1F", "note": "[Compound (32), 4-(2-butynyloxy)-6-(3,3-dimethylpiperidino)-5-fluoropyrimidine]", "number of surviving pests": 0},
      {"smiles": "CC#CCOc1ncnc(N2CCCCC2CC)c1F", "note": "(stereo not shown) [Compound (33), 4-(2-butynyloxy)-6-(2-ethylpiperidino)-5-fluoropyrimidine]", "number of surviving pests": 0},
      {"smiles": "CC#CCOc1ncnc(N2CCCCCCC2)c1F", "note": "[Compound (46), 1-(6-(2-butynyloxy)-5-fluoropyrimidin-4-yl)octahydro-1H-azocine]", "number of surviving pests": 0},
      {"smiles": "CC#CCOc1nc(F)nc(N2CC(C)CC(C)C2)c1Cl", "note": "(stereo not shown) [Compound (52), 5-chloro-4-(2-butynyloxy)-2-fluoro-6-(3,5-dimethylpiperidino)pyrimidine]", "number of surviving pests": 0},
      {"smiles": "CC#CCOc1ncnc(N2CC=CCC2)c1F", "note": "[Compound (53), 1-(6-(2-butynyloxy)-5-fluoropyrimidin-4-yl)-1,2,3,6-tetrahydropyridine]", "number of surviving pests": 0}
    ]}
  ]
}
